#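 Growth conditions: 96-well plates. Treatment: test compound, 48 hours, 5 concentrations. Analysis: linear interpolation between bracketing concentrations; unreached endpoints set to highest concentration. The concentration for 50% growth inhibition is given as GI50. TGI is the concentration that stops growth completely.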
# Tests used:
# Test in all cases: NCI anticancer screen, dose series, 48 h
# 786-0 renal = tested on: 786-0 renal
# A498 renal = tested on: A498 renal
# A549 NSCLC = tested on: A549 NSCLC
# ACHN renal = tested on: ACHN renal
# BT-549 breast = tested on: BT-549 breast
# CAKI-1 renal = tested on: CAKI-1 renal
# CCRF-CEM leukemia = tested on: CCRF-CEM leukemia
# COLO 205 colon = tested on: COLO 205 colon
# DU-145 prostate = tested on: DU-145 prostate
# EKVX NSCLC = tested on: EKVX NSCLC
# HCC-2998 colon = tested on: HCC-2998 colon
# HCT-116 colon = tested on: HCT-116 colon
# HCT-15 colon = tested on: HCT-15 colon
# HOP-62 NSCLC = tested on: HOP-62 NSCLC
# HOP-92 NSCLC = tested on: HOP-92 NSCLC
# K-562 leukemia = tested on: K-562 leukemia
# KM12 colon = tested on: KM12 colon
# LOX IMVI melanoma = tested on: LOX IMVI melanoma
# M14 melanoma = tested on: M14 melanoma
# MCF7 breast = tested on: MCF7 breast
# MDA-MB-231 breast = tested on: MDA-MB-231 breast
# MDA-MB-435 = tested on: MDA-MB-435
# MOLT-4 leukemia = tested on: MOLT-4 leukemia
# NCI-H226 lung = tested on: NCI-H226 lung
# NCI-H23 lung = tested on: NCI-H23 lung
# NCI-H460 lung = tested on: NCI-H460 lung
# NCI/ADR-RES ovarian = tested on: NCI/ADR-RES ovarian
# OVCAR-3 ovarian = tested on: OVCAR-3 ovarian
# OVCAR-4 ovarian = tested on: OVCAR-4 ovarian
# OVCAR-5 ovarian = tested on: OVCAR-5 ovarian
# PC-3 prostate = tested on: PC-3 prostate
# RPMI-8226 leukemia = tested on: RPMI-8226 leukemia
# RXF 393 renal = tested on: RXF 393 renal
# SF-268 CNS = tested on: SF-268 CNS
# SF-295 CNS = tested on: SF-295 CNS
# SK-MEL-2 melanoma = tested on: SK-MEL-2 melanoma
# SK-MEL-28 melanoma = tested on: SK-MEL-28 melanoma
# SK-MEL-5 melanoma = tested on: SK-MEL-5 melanoma
# SK-OV-3 ovarian = tested on: SK-OV-3 ovarian
# SNB-19 CNS = tested on: SNB-19 CNS
# SNB-75 CNS = tested on: SNB-75 CNS
# SW-620 colon = tested on: SW-620 colon
# T-47D breast = tested on: T-47D breast
# TK-10 renal = tested on: TK-10 renal
# U251 CNS = tested on: U251 CNS
# UACC-257 melanoma = tested on: UACC-257 melanoma
# UACC-62 melanoma = tested on: UACC-62 melanoma
# UO-31 renal = tested on: UO-31 renal
# HL-60(TB) leukemia = tested on: HL-60(TB) leukemia
# HT29 colon = tested on: HT29 colon
# IGROV1 ovarian = tested on: IGROV1 ovarian
# NCI-H522 lung = tested on: NCI-H522 lung
# OVCAR-8 ovarian = tested on: OVCAR-8 ovarian
# SF-539 CNS = tested on: SF-539 CNS
# SN12C renal = tested on: SN12C renal
# SR leukemia = tested on: SR leukemia
compound,measurement,setting,value
Cc1ccc(C2c3c(n(C)c(=O)n(C)c3=O)OC(N(C)C)(N(C)C)C2(F)F)cc1 (configuration not stated),TGI,786-0 renal,> 100 µM
same,TGI,A498 renal,> 100 µM
same,TGI,A549 NSCLC,> 100 µM
same,TGI,ACHN renal,> 100 µM
same,TGI,BT-549 breast,> 100 µM
same,TGI,CAKI-1 renal,> 100 µM
same,TGI,CCRF-CEM leukemia,> 100 µM
same,TGI,COLO 205 colon,> 100 µM
same,TGI,DU-145 prostate,> 100 µM
same,TGI,EKVX NSCLC,> 100 µM
same,TGI,HCC-2998 colon,> 100 µM
same,TGI,HCT-116 colon,> 100 µM
same,TGI,HCT-15 colon,> 100 µM
same,TGI,HOP-62 NSCLC,> 100 µM
same,TGI,HOP-92 NSCLC,> 100 µM
same,TGI,K-562 leukemia,> 100 µM
same,TGI,KM12 colon,> 100 µM
same,TGI,LOX IMVI melanoma,> 100 µM
same,TGI,M14 melanoma,> 100 µM
same,TGI,MCF7 breast,> 100 µM
same,TGI,MDA-MB-231 breast,> 100 µM
same,TGI,MDA-MB-435,> 100 µM
same,TGI,MOLT-4 leukemia,> 100 µM
same,TGI,NCI-H226 lung,> 100 µM
same,TGI,NCI-H23 lung,> 100 µM
same,TGI,NCI-H460 lung,> 100 µM
same,TGI,NCI/ADR-RES ovarian,> 100 µM
same,TGI,OVCAR-3 ovarian,> 100 µM
same,TGI,OVCAR-4 ovarian,> 100 µM
same,TGI,OVCAR-5 ovarian,> 100 µM
same,TGI,PC-3 prostate,> 100 µM
same,TGI,RPMI-8226 leukemia,> 100 µM
same,TGI,RXF 393 renal,> 100 µM
same,TGI,SF-268 CNS,> 100 µM
same,TGI,SF-295 CNS,> 100 µM
same,TGI,SK-MEL-2 melanoma,> 100 µM
same,TGI,SK-MEL-28 melanoma,> 100 µM
same,TGI,SK-MEL-5 melanoma,> 100 µM
same,TGI,SK-OV-3 ovarian,> 100 µM
same,TGI,SNB-19 CNS,> 100 µM
same,TGI,SNB-75 CNS,> 100 µM
same,TGI,SW-620 colon,> 100 µM
same,TGI,T-47D breast,> 100 µM
same,TGI,TK-10 renal,> 100 µM
same,TGI,U251 CNS,> 100 µM
same,TGI,UACC-257 melanoma,> 100 µM
same,TGI,UACC-62 melanoma,> 100 µM
same,TGI,UO-31 renal,> 100 µM
Cc1c(C(N)=O)sc2c1c(=O)n(Cc1ccccc1)c1nnc(SCC(=O)Nc3ccc(Cl)cc3)n21,GI50,786-0 renal,2.46 µM
same,TGI,786-0 renal,7.78 µM
same,GI50,A498 renal,2.51 µM
same,TGI,A498 renal,> 100 µM
same,GI50,ACHN renal,> 100 µM
same,TGI,ACHN renal,> 100 µM
same,GI50,BT-549 breast,3.65 µM
same,TGI,BT-549 breast,> 100 µM
same,GI50,CAKI-1 renal,> 100 µM
same,TGI,CAKI-1 renal,> 100 µM
same,GI50,CCRF-CEM leukemia,25.1 µM
same,TGI,CCRF-CEM leukemia,> 100 µM
same,GI50,COLO 205 colon,6.99 µM
same,TGI,COLO 205 colon,> 100 µM
same,GI50,DU-145 prostate,> 100 µM
same,TGI,DU-145 prostate,> 100 µM
same,GI50,EKVX NSCLC,18.1 µM
same,TGI,EKVX NSCLC,> 100 µM
same,GI50,HCC-2998 colon,5.56 µM
same,TGI,HCC-2998 colon,> 100 µM
same,GI50,HCT-116 colon,1.95 µM
same,TGI,HCT-116 colon,4.85 µM
same,GI50,HCT-15 colon,> 100 µM
same,TGI,HCT-15 colon,> 100 µM
same,GI50,HL-60(TB) leukemia,> 100 µM
same,TGI,HL-60(TB) leukemia,> 100 µM
same,GI50,HOP-62 NSCLC,3.71 µM
same,TGI,HOP-62 NSCLC,15.5 µM
same,GI50,HT29 colon,> 100 µM
same,TGI,HT29 colon,> 100 µM
same,GI50,IGROV1 ovarian,28 µM
same,TGI,IGROV1 ovarian,> 100 µM
same,GI50,K-562 leukemia,12.6 µM
same,TGI,K-562 leukemia,> 100 µM
same,GI50,KM12 colon,15.5 µM
same,TGI,KM12 colon,> 100 µM
same,GI50,LOX IMVI melanoma,5.45 µM
same,TGI,LOX IMVI melanoma,> 100 µM
same,GI50,M14 melanoma,4.63 µM
same,TGI,M14 melanoma,> 100 µM
same,GI50,MCF7 breast,6.61 µM
same,TGI,MCF7 breast,> 100 µM
same,GI50,MDA-MB-231 breast,3.81 µM
same,TGI,MDA-MB-231 breast,19.4 µM
same,GI50,MDA-MB-435,> 100 µM
same,TGI,MDA-MB-435,> 100 µM
same,GI50,MOLT-4 leukemia,> 100 µM
same,TGI,MOLT-4 leukemia,> 100 µM
same,GI50,NCI-H226 lung,5.8 µM
same,TGI,NCI-H226 lung,46.2 µM
same,GI50,NCI-H23 lung,2.78 µM
same,TGI,NCI-H23 lung,10.7 µM
same,GI50,NCI-H460 lung,3.28 µM
same,TGI,NCI-H460 lung,> 100 µM
same,GI50,NCI-H522 lung,4.12 µM
same,TGI,NCI-H522 lung,> 100 µM
same,GI50,NCI/ADR-RES ovarian,> 100 µM
same,TGI,NCI/ADR-RES ovarian,> 100 µM
same,GI50,OVCAR-5 ovarian,> 100 µM
same,TGI,OVCAR-5 ovarian,> 100 µM
same,GI50,OVCAR-8 ovarian,4.03 µM
same,TGI,OVCAR-8 ovarian,> 100 µM
same,GI50,PC-3 prostate,3.3 µM
same,TGI,PC-3 prostate,> 100 µM
same,GI50,SF-268 CNS,8.05 µM
same,TGI,SF-268 CNS,> 100 µM
same,GI50,SF-295 CNS,4.71 µM
same,TGI,SF-295 CNS,73.8 µM
same,GI50,SF-539 CNS,2.53 µM
same,TGI,SF-539 CNS,6.33 µM
same,GI50,SK-MEL-2 melanoma,> 100 µM
same,TGI,SK-MEL-2 melanoma,> 100 µM
same,GI50,SK-MEL-5 melanoma,4.89 µM
same,TGI,SK-MEL-5 melanoma,24 µM
same,GI50,SK-OV-3 ovarian,3.37 µM
same,TGI,SK-OV-3 ovarian,> 100 µM
same,GI50,SN12C renal,> 100 µM
same,TGI,SN12C renal,> 100 µM
same,GI50,SNB-19 CNS,63.5 µM
same,TGI,SNB-19 CNS,> 100 µM
same,GI50,SR leukemia,3.19 µM
same,TGI,SR leukemia,14 µM
same,GI50,SW-620 colon,> 100 µM
same,TGI,SW-620 colon,> 100 µM
same,GI50,T-47D breast,3.52 µM
same,TGI,T-47D breast,15.1 µM
same,GI50,U251 CNS,4.14 µM
same,TGI,U251 CNS,19.5 µM
same,GI50,UACC-257 melanoma,3.44 µM
same,TGI,UACC-257 melanoma,> 100 µM
same,GI50,UACC-62 melanoma,9.26 µM
same,TGI,UACC-62 melanoma,> 100 µM
same,GI50,UO-31 renal,> 100 µM
same,TGI,UO-31 renal,> 100 µM
